Laboratory results taken from patent US20220152031A1, “PYRIDAZINONES AND METHODS OF USE THEREOF” (Goldfinch Bio, Inc., priority 2019, published 2022).

Columns and labels:
[1] = system: deoxycorticosterone acetate (DOCA)-salt hypertensive rats; test: Albuminuria in DOCA-salt hypertensive rats; format: in vivo, Sprague Dawley rats
Excerpt: The aim of this study was to evaluate the effects of the TRCP5 inhibitor, AO, to attenuate the development and/or progression of albuminuria in deoxycorticosterone acetate (DOCA)-salt hypertensive rats.
The DOCA-salt hypertensive rat model is a well-established model of mineralocorticoid hypertension with renal dysfunction, characterized by increase levels of urinary protein and albumin excretion. [Schenk et al., “The pathogenesis of DOCA-salt hypertension,” J. Pharmacol. Toxicol. Methods (May 1992) 27(3):161-170; Gomez-Sanchez et al., “Mineralocorticoids, salt and high blood pressure,” Steroids (1996) 61:184-188.]
Six to seven weeks old Sprague Dawley rats were unilaterally nephrectomized; after one-week recovery, rats were implanted with a DOCA pellet (45 mg) and provided tap water containing 0.9% NaCl and 0.2% KCl (Day 1) for a 3 weeks treatment. On Day 1, DOCA-salt rats received one daily dose, subcutaneously (SC), of AO at 30 mg/kg for 3 weeks; control animals for DOCA treatment were administered vehicle or eplerenone, an aldosterone blocker; sham animals, implanted with a silicone-water pellet, were given tap water and received SC administration of the vehicle. Proteinuria, albuminuria and arterial blood pressure as well as body weight were recorded every week.

[2] = system: murine podocytes; test: Murine podocytes with protamine sulfate injury; format: cell-based; conditions: pretreated 0.1, 1, 10 uM for 20 minutes, 300 ug/mL protamine sulfate 1 hour
Description: Conditionally immortalized murine podocytes were differentiated for 14 days in gamma-interferon-free media[Synaptopodin Is a Coincidence Detector of Tyrosine versus Serine/Threonine Phosphorylation for the Modulation of Rho Protein Crosstalk in Podocytes. Buvall L, Wallentin H, Sieber J, Andreeva S, Choi H Y, Mundel P, Greka A. J Am Soc Nephrol. 2017 March; 28(3):837-851. doi: 10.1681/ASN.2016040414. Epub 2016 Sep. 14.]. Murine podocyte cells were pretreated with 0.1, 1, 10 uM of AO or DMSO for 20 minutes then insulted with 300 ug/mL of protamine sulfate (PS) for 1 hour; 3 technical replicate plates were treated for each condition. Murine cells were washed with 1×DPBS −/−, fixed in 4% PFA+4% sucrose for 10 minutes at room temperature, washed 3 times with 1×DPBS −/−, permeabilized with 0.3% triton, and probed for phalloidin, synaptopodin, and DAPI (Proteasomal degradation of Nck1 but not Nck2 regulates RhoA activation and actin dynamics. Buvall L, Rashmi P, Lopez-Rivera E, Andreeva S, Weins A, Wallentin H, Greka A, Mundel P. Nat Commun. (2013) 4:2863. doi: 10.1038/ncomms3863.). Tiled images were acquired using a Zeiss LSM880 Airyscan super resolution confocal microscope using ZEN 2.3. Manual quantitation of cells with or without collapsed actin cytoskeleton were quantified. […]

[3] = system: human iPSC derived kidney organoids; test: Human iPSC derived kidney organoids with protamine sulfate injury; format: cell-based; conditions: pretreated 0.2, 2, 20 uM for 20 minutes, 300 ug/mL protamine sulfate 1 hour; vs protamine sulfate alone
Description: Human iPSC derived kidney organoids differentiated for 22 days [Generation of kidney organoids from human pluripotent stem cells. Takasato M, Er P X, Chiu H S, Little M H. Nat Protoc. 2016 September; 11(9):1681-92. doi: 10.1038/nprot.2016.098. Epub 2016 Aug. 18.] were pretreated with 0.2, 2, 20 uM of AO or DMSO for 20 minutes then insulted with 300 ug/mL of protamine sulfate for 1 hour; 3 technical replicate organoids were treated for each condition. Organoids were washed twice with 1×DPBS−/−, fixed in 4% PFA for 25 minutes at room temperature, washed twice with 1×DPBS−/−, and transferred to 30% sucrose at 4° C. overnight, then snap frozen in Tissue-Tek O.C.T. compound. Organoids were cryosectioned at […] thickness and stained for phalloidin. Tiled images were acquired using a Zeiss LSM880 Airyscan super resolution confocal microscope using ZEN 2.3. Mean intensity values were quantified using Fiji/ImagJ1.52d.

[4] = DOCA-AO compared to sham animals, week 1 to 3
[5] = DOCA-salt treatment followed by AO

## O=C1CN(c2cn[nH]c(=O)c2Cl)CCN1Cc1ccccc1C(F)(F)F [AO]
[1]; 30 mg/kg SC daily, week 1 to week 3, vs DOCA-vehicle control rats, significance at week 3 (p value 0.0011)
  urinary albumin excretion: attenuated
[1]; 30 mg/kg SC once daily for 3 weeks
  adverse effects: No adverse effects were observed
[1]; DOCA vs DOCA-AO, 30 mg/kg SC once daily for 3 weeks
  body weight: no significant difference
[1]; [4]
  diastolic BP: elevated
  mean arterial blood pressure (BP): elevated
  systolic BP: elevated
[1]; [5]
  urine volume produced per day: elevated
  water intake: elevated
[2]
  murine cells protected from cytoskeletal collapse induced by protamine sulfate: ~20%
[3]
  injury from protamine sulfate (mean phalloidin intensity per organoid): decreased injury
